Test results as given in ChEMBL document CHEMBL4373645, “Recent development of leucyl-tRNA synthetase inhibitors as antimicrobial agents” (Medchemcomm, 2019).
In brackets after ≈: the same amount, converted by molar mass.

Legend:
[1] = Inhibition of Trypanosoma brucei LeuRS preincubated for 20 mins followed by ATP addition measured after 15 mins in presence of [14C]leucine by scintillation counting method
[2] = Inhibition of human LeuRS after 10 mins in presence of [3H]leucine by scintillation counting method
[3] = Selectivity index, ratio of IC50 for human cytoplasmic LeuRS to IC50 for Trypanosoma brucei LeuRS
[4] = Inhibition of Trypanosoma brucei LeuRS presence of [14C]leucine by scintillation counting method
Trypanosoma brucei = assay: Inhibition of Trypanosoma brucei LeuRS assessed as residual activity at 100 uM incubated for 5 mins in presence of [14C]leucine by scintillation counting method relative to control
[5] = test system: Mycobacterium tuberculosis; assay: Antitubercular activity against Mycobacterium tuberculosis H37Rv by time-kill assay; assay type: functional
Leucine--tRNA ligase = Leucine--tRNA ligase (Escherichia coli (strain K12), UniProt P07813); assay: Binding affinity to Escherichia coli LeuRS
Sequence of Leucine--tRNA ligase (P07813 whole entry): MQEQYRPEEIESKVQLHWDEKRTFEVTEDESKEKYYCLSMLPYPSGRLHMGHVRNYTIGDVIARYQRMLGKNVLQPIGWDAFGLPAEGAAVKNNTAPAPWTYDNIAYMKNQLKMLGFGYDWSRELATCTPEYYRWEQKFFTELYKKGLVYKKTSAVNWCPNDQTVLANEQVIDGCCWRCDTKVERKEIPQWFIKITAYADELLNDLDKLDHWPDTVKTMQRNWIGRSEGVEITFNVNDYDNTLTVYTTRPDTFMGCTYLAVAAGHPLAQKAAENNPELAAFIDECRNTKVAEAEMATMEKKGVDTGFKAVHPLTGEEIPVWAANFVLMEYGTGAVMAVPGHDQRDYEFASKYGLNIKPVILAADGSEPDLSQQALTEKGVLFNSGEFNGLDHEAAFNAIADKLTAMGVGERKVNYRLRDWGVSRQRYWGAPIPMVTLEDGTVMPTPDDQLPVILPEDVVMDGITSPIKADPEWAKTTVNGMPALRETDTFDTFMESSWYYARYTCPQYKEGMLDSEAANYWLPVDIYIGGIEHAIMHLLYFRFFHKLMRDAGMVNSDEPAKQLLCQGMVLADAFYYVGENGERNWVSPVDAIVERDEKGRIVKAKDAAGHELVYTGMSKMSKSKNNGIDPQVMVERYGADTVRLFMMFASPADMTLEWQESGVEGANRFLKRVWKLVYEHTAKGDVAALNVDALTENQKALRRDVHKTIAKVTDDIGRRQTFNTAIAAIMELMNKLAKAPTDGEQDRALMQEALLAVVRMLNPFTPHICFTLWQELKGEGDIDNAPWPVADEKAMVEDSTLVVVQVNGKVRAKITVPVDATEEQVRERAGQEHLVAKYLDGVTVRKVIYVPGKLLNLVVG

Streptococcus pneumoniae = assay: Antibacterial activity against Streptococcus pneumoniae assessed as the reduction in bacterial growth incubated for 24 hrs by dilution antimicrobial susceptibility test; assay type: functional

| SMILES | IC50 [1] [µM] | IC50 [2] [µM] | Ratio IC50 [3] | other results |
| --- | --- | --- | --- | --- |
| CC(C)C[C@H](N)C(=O)NS(=O)(=O)c1cccc(NC(=S)NC(=O)c2ccccc2)c1 | 7.6 | 55.5 | 4.5 to 7.3 | – |
| CC(C)C[C@H](NC(=O)OCc1ccccc1)C(=O)NS(=O)(=O)c1cccc(NC(=S)NC(=O)COc2ccc(Br)cc2Cl)c1 | 16.7 | – | – | – |
| CC(C)C[C@H](N)C(=O)NS(=O)(=O)c1cccc(NC(=S)NC(=O)COc2ccc(Br)cc2Cl)c1 | 1.1 | 4.9 | 4.5 to 7.3 | – |
| COc1ccc(C(=O)NC(=S)Nc2cccc(S(=O)(=O)NC(=O)[C@@H](N)CC(C)C)c2)cc1 | 5.6 | 33.9 | 4.5 to 7.3 | – |
| Cc1n[nH]c(=O)nc1Nc1cc(Cl)ccc1O | – | – | – | IC50 [4]: 7.6 µM; Activity (Trypanosoma brucei): 2.3% |
| O=C(COc1ccc(Br)cc1Cl)NC(=S)Nc1cccc(S(=O)(=O)NC(=O)[C@H](Cc2ccccc2)NC(=O)OCc2ccccc2)c1 | 13.7 | – | – | – |
| OB1OCc2ccccc21 [BENZOXABOROLE] | – | – | – | MIC [5]: 7.5 µg/mL (≈ 56 µM) |
| COc1cccc(C(=O)NC(=S)Nc2cccc(S(=O)(=O)NC(=O)[C@@H](N)CC(C)C)c2)c1 | 6.7 | 40 | 4.5 to 7.3 | – |
| NCC1OB(O)c2ccccc21 (stereo not drawn) | – | – | – | MIC [5]: 1.8 µg/mL (≈ 11 µM) |
| Cc1cc(-c2cccc(S(=O)(=O)CC(=O)[C@@H](N)CC(C)C)c2)ncn1 | – | – | – | Kd (Leucine--tRNA ligase): 0.0014 µM |
| OB1OCc2ccc(C(O)c3ccccc3)cc21 (stereo not drawn) | – | – | – | MIC (Streptococcus pneumoniae): 5 µg/mL (≈ 20.8 µM) |
| O=c1nc(Nc2cc(Cl)ccc2O)cn[nH]1 | – | – | – | IC50 [4]: 7.2 µM; Activity (Trypanosoma brucei): 18% |
| NS(=O)(=O)c1ccc(NC(=S)NC(=O)COc2ccc(Br)cc2Cl)cc1 | 174 | – | – | – |
